The values that follow are results of earlier work, collected in patent US20160324796A1, “COMPOSITIONS AND THEIR USE TO TREAT COMPLICATIONS OF ANEURYSMAL SUBARACHNOID HEMMORRHAGE” (Edge Therapeutics, Inc., priority 2007, published 2016).

Like-named read-outs stand apart in the source and are kept apart here. Ends that are not written are not given here.

The test system of data set [1] is patients with SAH. As to conditions: cited from earlier work; for patients with primary end point: placebo 27%; for patients with poor outcome (extended Glasgow Outcome Scale score </=4): placebo 24%.
Data set [2] concerns patients with SAH. As to conditions: cited from earlier work.
Data set [3] relates to R-type calcium current. The conditions noted are these: cited from earlier work.
The subject of data set [4] is K+ and Na+ currents, and L, P/Q and T-type calcium currents. As to conditions: cited from earlier work.
In data set [5] the target is N-type calcium current (Homo sapiens, UniProt Q00975). The conditions noted are these: at 300 nM to 500 nM; cited from earlier work.
Sequence of N-type calcium current (Q00975 whole entry): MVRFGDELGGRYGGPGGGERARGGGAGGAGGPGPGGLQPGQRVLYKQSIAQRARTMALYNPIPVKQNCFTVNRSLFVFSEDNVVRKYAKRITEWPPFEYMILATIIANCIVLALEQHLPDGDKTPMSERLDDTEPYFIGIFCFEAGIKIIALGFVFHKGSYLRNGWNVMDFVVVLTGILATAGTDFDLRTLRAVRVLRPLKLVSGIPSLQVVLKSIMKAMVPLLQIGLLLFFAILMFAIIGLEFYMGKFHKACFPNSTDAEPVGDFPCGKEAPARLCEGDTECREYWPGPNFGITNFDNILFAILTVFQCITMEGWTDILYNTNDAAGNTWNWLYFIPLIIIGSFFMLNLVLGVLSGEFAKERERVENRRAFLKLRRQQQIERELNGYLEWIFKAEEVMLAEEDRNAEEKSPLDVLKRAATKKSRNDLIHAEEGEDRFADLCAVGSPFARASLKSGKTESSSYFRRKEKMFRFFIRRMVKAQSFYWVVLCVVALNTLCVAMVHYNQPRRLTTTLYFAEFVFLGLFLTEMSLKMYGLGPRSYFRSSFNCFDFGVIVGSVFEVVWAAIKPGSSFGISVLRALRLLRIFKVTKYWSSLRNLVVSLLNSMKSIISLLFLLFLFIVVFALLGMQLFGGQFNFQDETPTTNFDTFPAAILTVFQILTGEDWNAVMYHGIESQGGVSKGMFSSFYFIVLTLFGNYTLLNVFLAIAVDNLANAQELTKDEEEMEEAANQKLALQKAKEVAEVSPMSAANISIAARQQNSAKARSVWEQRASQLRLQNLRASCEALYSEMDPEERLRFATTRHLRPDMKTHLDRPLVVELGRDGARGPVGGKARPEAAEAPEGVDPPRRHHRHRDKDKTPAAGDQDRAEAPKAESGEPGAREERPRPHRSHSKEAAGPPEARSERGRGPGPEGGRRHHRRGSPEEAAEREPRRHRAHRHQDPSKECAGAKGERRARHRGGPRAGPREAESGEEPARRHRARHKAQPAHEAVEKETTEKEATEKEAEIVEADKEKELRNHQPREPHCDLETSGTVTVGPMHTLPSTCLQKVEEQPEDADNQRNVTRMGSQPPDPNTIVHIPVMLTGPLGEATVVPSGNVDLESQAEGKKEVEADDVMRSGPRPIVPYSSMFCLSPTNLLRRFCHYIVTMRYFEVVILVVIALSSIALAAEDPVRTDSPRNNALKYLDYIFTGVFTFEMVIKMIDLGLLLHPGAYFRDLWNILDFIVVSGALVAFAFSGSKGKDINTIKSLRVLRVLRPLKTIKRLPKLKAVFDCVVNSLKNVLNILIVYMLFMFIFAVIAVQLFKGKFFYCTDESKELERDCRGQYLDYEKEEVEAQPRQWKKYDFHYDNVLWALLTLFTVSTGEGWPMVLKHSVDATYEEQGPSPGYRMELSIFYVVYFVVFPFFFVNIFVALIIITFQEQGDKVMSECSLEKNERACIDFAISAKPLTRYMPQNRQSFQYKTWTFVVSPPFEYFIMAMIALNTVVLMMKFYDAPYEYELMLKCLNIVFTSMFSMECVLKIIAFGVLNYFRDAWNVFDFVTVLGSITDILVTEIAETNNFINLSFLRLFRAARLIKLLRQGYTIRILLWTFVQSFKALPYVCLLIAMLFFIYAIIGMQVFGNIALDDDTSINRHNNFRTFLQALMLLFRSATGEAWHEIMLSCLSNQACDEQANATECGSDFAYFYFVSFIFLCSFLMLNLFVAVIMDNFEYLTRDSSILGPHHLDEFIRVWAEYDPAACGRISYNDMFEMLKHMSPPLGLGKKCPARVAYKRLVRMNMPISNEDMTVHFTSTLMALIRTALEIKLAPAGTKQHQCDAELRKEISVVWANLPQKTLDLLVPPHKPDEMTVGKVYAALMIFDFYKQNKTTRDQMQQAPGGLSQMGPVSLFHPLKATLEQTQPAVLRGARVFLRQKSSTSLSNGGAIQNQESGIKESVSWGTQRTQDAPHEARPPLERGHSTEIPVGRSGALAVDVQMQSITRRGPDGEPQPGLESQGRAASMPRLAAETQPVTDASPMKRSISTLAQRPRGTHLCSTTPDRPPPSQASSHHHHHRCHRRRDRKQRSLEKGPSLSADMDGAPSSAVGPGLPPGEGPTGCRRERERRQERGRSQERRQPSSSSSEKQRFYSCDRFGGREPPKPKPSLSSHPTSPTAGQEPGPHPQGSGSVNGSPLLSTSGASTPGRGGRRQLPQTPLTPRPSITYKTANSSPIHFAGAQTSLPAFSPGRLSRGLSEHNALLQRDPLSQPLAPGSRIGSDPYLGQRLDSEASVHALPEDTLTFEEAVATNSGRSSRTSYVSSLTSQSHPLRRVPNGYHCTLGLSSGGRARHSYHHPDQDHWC

For `COc1ccccc1Oc1c(NS(=O)(=O)c2ccc(C)cn2)nc(-c2ccnc(-c3nnn[nH]3)c2)nc1OCCO` [clazosentan], the “odds ratio, primary end point” value is listed as 0.786 in data set [1] (5 mg/h versus placebo, 95% CI 0.479-1.289, P=0.340) and 0.474 in data set [1] (15 mg/h versus placebo, 95% CI 0.275-0.818, P=0.007). The “odds ratio, poor outcome” value in data set [1] (5 mg/h versus placebo, 95% CI 0.546-1.544, P=0.748) is on record as 0.918; in data set [1] (15 mg/h versus placebo, 95% CI 0.802-2.227, P=0.266) it was 1.337. Also, the “patients with primary end point” value is 24% in data set [1] (5 mg/h, 47/194) and 15% in data set [1] (15 mg/h, 28/188). In addition, the “patients with poor outcome (extended Glasgow Outcome Scale score </=4)” value is 25% in data set [1] (5 mg/h) and 28% in data set [1] (15 mg/h). In data set [2] (5 mg/h up to 14 days, 161 of 764 patients, placebo 25%), the “patients meeting primary composite endpoint (week 6)” value is reported as 21%. The “relative risk reduction, primary composite endpoint” value in data set [2] (5 mg/h versus placebo, 95% CI -4 to 33, p=0.10) is listed as 17%. The “relative risk reduction, poor functional outcome” value in data set [2] (5 mg/h versus placebo, −45 to 4, p=0.10) is given as −18%. Further, the “patients with poor functional outcome (GOSE score </=4)” value in data set [2] (5 mg/h, placebo 25%) was 29%. Also, in data set [2] (5 mg/h, same in placebo), the “Mortality (week 12)” value was 6%.
Take “SNX-482: toxin from the tarantula Hysterocrates gigas, a 41 amino acid residue peptide with 3 disulfide linkages; putative R-type selective blocker (GVDKAGCRYMFGGCSVNDDCCPRLGCHSLFSYCAWDLTFSD; disulfide (positions not given here); UniProt P56854 1-41, looked up)”: the “block of R-type calcium current” value in data set [3] (neurohypophysial nerve endings, 40 nM) is reported as “blocks”. Besides, the “effect on R-type current” value in data set [3] (preparations of the neuronal cell body, retinal ganglion cells and hippocampal pyramidal cells) was “no significant effect”. Further, the “effect on K+ and Na+ currents, and L, P/Q and T-type calcium currents” value in data set [4] is recorded as “no effect”. Moreover, the “block of N-type calcium current” value in data set [5] is given as 30-50%.
